pIC50: −log10 of the molar value.
Molecular target: Lysine-specific histone demethylase 1A (Homo sapiens, UniProt O60341)
Test: Inhibition of recombinant LSD1 (unknown origin) expressed in Escherichia coli BL21 (DE3) using H3K4me2 peptide as substrate incubated for 30 mins by fluorescence based microplate reader assay

| SMILES | pIC50 |
| --- | --- |
| CN(C)CCCN1c2ccccc2Sc2ccccc21 [PROMAZINE] | 5.33 |
| CN1CCN(CCCN2c3ccccc3Sc3ccccc32)CC1 [PERAZINE] | 6.04 |

— ChEMBL document CHEMBL5247647, “Phenothiazine-Based LSD1 Inhibitor Promotes T-Cell Killing Response of Gastric Cancer Cells” (J Med Chem, 2023)
